The source of these data is ChEMBL document CHEMBL1909046, “DrugMatrix in vitro pharmacology data”.

The nature of data set [1]: DRUGMATRIX: Calcium Channel Type L, Benzothiazepine radioligand binding (ligand: [3H] Diltiazem). Type of data set: cell membranes, Rattus norvegicus, Wistar, Brain, Membrane. To be noted: Not Active = under 50% inhibition at 10 µM.
The nature of data set [2]: DRUGMATRIX: Calcium Channel Type L, Dihydropyridine radioligand binding (ligand: [3H] Nitrendipine). Type of data set: cell membranes, Rattus norvegicus, Wistar, Cerebral cortex, Membrane. To be noted: Not Active = under 50% inhibition at 10 µM.
Data set [3] deals with 5-hydroxytryptamine receptor 2B (Homo sapiens, UniProt P41595). Type of data set: cell membranes, CHO-K1, Membrane.
In data set [4] the target is T1, Vasoactive intestinal polypeptide receptor 1 (Homo sapiens, UniProt P32241). Further: in other assays of this panel Not Active means under 50% inhibition at 10 µM.
T1 sequence (P32241 whole entry): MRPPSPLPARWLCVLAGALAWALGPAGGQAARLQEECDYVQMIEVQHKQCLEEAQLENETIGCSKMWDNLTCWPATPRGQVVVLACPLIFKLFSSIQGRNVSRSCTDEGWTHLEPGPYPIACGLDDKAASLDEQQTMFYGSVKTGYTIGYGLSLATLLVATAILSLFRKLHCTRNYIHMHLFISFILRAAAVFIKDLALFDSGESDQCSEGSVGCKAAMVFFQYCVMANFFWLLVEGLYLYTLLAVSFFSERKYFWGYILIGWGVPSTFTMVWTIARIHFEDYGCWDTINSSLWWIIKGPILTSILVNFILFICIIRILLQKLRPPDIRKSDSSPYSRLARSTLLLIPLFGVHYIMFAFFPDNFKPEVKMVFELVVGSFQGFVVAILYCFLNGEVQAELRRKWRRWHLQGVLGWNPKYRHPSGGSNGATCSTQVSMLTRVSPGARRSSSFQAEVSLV
Format: cell membranes, Membrane. To be noted: ht-29.

The next data set has as its target T2, Adenosine receptor A3 (Homo sapiens, UniProt P0DMS8).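 Further: radioligand binding assay with AB-MECA serving as the labeled ligand; in other assays of this panel Not Active means under 50% inhibition at 10 µM.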
T2 sequence (P0DMS8 whole entry): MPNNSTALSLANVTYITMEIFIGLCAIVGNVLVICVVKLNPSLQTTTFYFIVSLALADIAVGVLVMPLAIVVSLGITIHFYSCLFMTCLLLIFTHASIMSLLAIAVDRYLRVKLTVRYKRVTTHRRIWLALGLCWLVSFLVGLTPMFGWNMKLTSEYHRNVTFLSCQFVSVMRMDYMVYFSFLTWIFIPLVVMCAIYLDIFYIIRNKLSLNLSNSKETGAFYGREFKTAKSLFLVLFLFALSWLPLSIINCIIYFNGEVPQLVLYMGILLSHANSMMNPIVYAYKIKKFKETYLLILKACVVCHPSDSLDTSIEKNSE
Format: cell membranes, CHO-K1, Membrane. To be noted: cho-k1.

Another data set addresses Cytochrome P450 3A4 (Homo sapiens, UniProt P08684). To be noted: bti-tn-5b1-4.

Sequence of Cytochrome P450 3A4 (P08684 whole entry): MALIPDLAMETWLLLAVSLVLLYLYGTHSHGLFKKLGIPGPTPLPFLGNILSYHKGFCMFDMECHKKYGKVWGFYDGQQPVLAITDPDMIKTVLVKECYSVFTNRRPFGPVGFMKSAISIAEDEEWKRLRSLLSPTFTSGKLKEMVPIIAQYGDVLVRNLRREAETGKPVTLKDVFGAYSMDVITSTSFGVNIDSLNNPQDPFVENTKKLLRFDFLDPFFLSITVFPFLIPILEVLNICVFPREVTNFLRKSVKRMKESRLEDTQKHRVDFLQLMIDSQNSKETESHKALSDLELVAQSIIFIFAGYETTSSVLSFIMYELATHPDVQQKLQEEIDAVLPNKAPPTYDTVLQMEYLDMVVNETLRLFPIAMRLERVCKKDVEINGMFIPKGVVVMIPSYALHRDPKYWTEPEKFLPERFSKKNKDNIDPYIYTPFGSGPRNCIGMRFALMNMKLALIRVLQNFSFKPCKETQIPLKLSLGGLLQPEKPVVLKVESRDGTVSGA
Sequence of 5-hydroxytryptamine receptor 2B (P41595 whole entry): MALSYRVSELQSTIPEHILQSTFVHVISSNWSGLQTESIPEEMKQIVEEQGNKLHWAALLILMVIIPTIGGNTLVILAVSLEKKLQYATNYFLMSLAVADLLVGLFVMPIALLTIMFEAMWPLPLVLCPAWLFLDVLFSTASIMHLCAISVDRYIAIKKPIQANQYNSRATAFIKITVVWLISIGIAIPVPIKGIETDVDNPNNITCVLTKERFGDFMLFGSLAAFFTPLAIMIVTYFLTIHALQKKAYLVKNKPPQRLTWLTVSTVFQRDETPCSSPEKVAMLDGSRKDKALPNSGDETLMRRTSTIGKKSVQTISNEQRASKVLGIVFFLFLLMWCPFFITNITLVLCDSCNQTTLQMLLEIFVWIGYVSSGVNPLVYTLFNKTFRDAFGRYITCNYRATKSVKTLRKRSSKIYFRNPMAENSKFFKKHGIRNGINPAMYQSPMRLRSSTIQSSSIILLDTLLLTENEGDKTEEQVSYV

As for `C[C@]12CCC(=O)C=C1CC[C@@H]1[C@@H]2CC[C@@]2(C)[C@H]1CC[C@]2(C)O` [METHYLTESTOSTERONE], the IC50 entry (in data set [1]; in data set [2]; in data set [3] (cho-k1); in data set [4]; on Adenosine receptor A3; against Cytochrome P450 3A4) was “Not Active” throughout. Further, the inhibition constant (Ki) entry (in data set [1]; in data set [2]; at Cytochrome P450 3A4) was “Not Active” in each case.

For `Nc1nc2c(ncn2COCCO)c(=O)[nH]1` [ACYCLOVIR], the 50% inhibitory concentration (IC50) entry (in data set [1]; in data set [2]; in data set [3] (cho-k1); in data set [4]; against Adenosine receptor A3; at Cytochrome P450 3A4) was “Not Active” throughout. The inhibition constant Ki result (in data set [1]; in data set [2]; on Cytochrome P450 3A4) was “Not Active” each time.

With `Cc1c(C)c2c(c(C)c1O)CC[C@@](C)(CCC[C@H](C)CCC[C@H](C)CCCC(C)C)O2` [ALPHA-TOCOPHEROL], the IC50 result (in data set [1]; in data set [2]; in data set [3] (cho-k1); in data set [4]; against Adenosine receptor A3; against Cytochrome P450 3A4) was “Not Active” each time. The Ki result (in data set [1]; in data set [2]; on Cytochrome P450 3A4) was “Not Active” in each case.

For `Cc1ccc(/N=C/N(C)/C=N/c2ccc(C)cc2C)c(C)c1` [AMITRAZ], the half-maximal inhibitory concentration (IC50) result (in data set [1]; in data set [2]; in data set [3] (cho-k1); in data set [4]; against Adenosine receptor A3; on Cytochrome P450 3A4) was “Not Active” in each case. Moreover, the Ki result (in data set [1]; in data set [2]; at Cytochrome P450 3A4) was “Not Active” in each case.

`CNCCCN1c2ccccc2CCc2ccccc21` [DESIPRAMINE]: the 50% inhibitory concentration (IC50) entry (in data set [1]; in data set [2]; in data set [3] (cho-k1); in data set [4]; against Adenosine receptor A3; at Cytochrome P450 3A4) was “Not Active” in each case. The Ki result (in data set [1]; in data set [2]; at Cytochrome P450 3A4) was “Not Active” throughout.

CADMIUM ACETATE: the IC50 result (in data set [1]; in data set [2]; in data set [3] (cho-k1); in data set [4]; against Adenosine receptor A3; at Cytochrome P450 3A4) was “Not Active” each time. Moreover, the Ki result (in data set [1]; in data set [2]; in data set [3] (cho-k1); in data set [4]; at Adenosine receptor A3; at Cytochrome P450 3A4) was “Not Active” each time.

In the case of `COc1cc2c3cc1Oc1cc(ccc1O)C[C@@H]1c4c(cc(OC)c(O)c4Oc4ccc(cc4)C[C@@H]3N(C)CC2)CC[N+]1(C)C.[Cl-]`, the half-inhibitory concentration (IC50) entry (in data set [1]; in data set [2]; in data set [3] (cho-k1); in data set [4]; against Adenosine receptor A3; against Cytochrome P450 3A4) was “Not Active” in each case. Further, the Ki result (in data set [1]; in data set [2]; at Cytochrome P450 3A4) was “Not Active” each time.

As to `CN(Cc1ccc(C(C)(C)C)cc1)Cc1cccc2ccccc12` [BUTENAFINE], the concentration for half-maximal inhibition (IC50) entry (in data set [1]; in data set [2]; in data set [3] (cho-k1); in data set [4]; on Adenosine receptor A3; against Cytochrome P450 3A4) was “Not Active” each time. The Ki entry (in data set [1]; in data set [2]; at Cytochrome P450 3A4) was “Not Active” in each case.

As for `C[C@H](CCC(=O)O)[C@H]1CC[C@H]2[C@@H]3[C@H](O)C[C@@H]4C[C@H](O)CC[C@]4(C)[C@H]3C[C@H](O)[C@]12C` [CHOLIC ACID], the concentration for half-maximal inhibition (IC50) result (in data set [1]; in data set [2]; in data set [3] (cho-k1); in data set [4]; against Adenosine receptor A3; on Cytochrome P450 3A4) was “Not Active” throughout. Further, the Ki entry (in data set [1]; in data set [2]; at Cytochrome P450 3A4) was “Not Active” in each case.

For `CC1=C2C(=CO[C@H](C)[C@H]2C)C(O)=C(C(=O)O)C1=O` [CITRININ], the half-inhibitory concentration (IC50) result (in data set [1]; in data set [2]; in data set [3] (cho-k1); in data set [4]; against Adenosine receptor A3; at Cytochrome P450 3A4) was “Not Active” throughout. The Ki result (in data set [1]; in data set [2]; at Cytochrome P450 3A4) was “Not Active” each time.

With `O=C(CCCN1CC=C(n2c(=O)[nH]c3ccccc32)CC1)c1ccc(F)cc1` [DROPERIDOL], the IC50 result in data set [1] is “Not Active”; in data set [2], “Not Active”; in data set [3] (read-out: IC50), 1340 nM; in data set [4], “Not Active”; against Adenosine receptor A3 it was “Not Active”; against Cytochrome P450 3A4, “Not Active”. Also, the Ki entry in data set [1] was “Not Active”; in data set [2], “Not Active”; in data set [3] (read-out: Ki) it was 854 nM; on Cytochrome P450 3A4, “Not Active”.

Take `CCCCc1nc(Cl)c(CO)n1Cc1ccc(-c2ccccc2-c2nnn[nH]2)cc1` [LOSARTAN]: the IC50 result (in data set [1]; in data set [2]; in data set [3] (cho-k1); in data set [4]; on Adenosine receptor A3; against Cytochrome P450 3A4) was “Not Active” each time. For the same compound, the Ki result (in data set [1]; in data set [2]; at Cytochrome P450 3A4) was “Not Active” each time.

Regarding `Cc1cc(C2CCCCC2)n(O)c(=O)c1` [CICLOPIROX], the IC50 entry (in data set [1]; in data set [2]; in data set [3] (cho-k1); in data set [4]; against Adenosine receptor A3; at Cytochrome P450 3A4) was “Not Active” throughout. Moreover, the inhibitory constant (Ki) result (in data set [1]; in data set [2]; at Cytochrome P450 3A4) was “Not Active” each time.

As to `CCCCN1CCCC[C@H]1C(=O)Nc1c(C)cccc1C` [LEVOBUPIVACAINE], the IC50 entry (in data set [1]; in data set [2]; in data set [3] (cho-k1); in data set [4]; on Adenosine receptor A3; against Cytochrome P450 3A4) was “Not Active” throughout. In addition, the Ki result (in data set [1]; in data set [2]; at Cytochrome P450 3A4) was “Not Active” in each case.

As to `CC[C@@]1(O)C[C@H](O[C@H]2C[C@H](N(C)C)[C@H](O[C@H]3C[C@H](O)[C@H](O[C@H]4CCC(=O)[C@H](C)O4)[C@H](C)O3)[C@H](C)O2)c2c(cc3c(c2O)C(=O)c2c(O)cccc2C3=O)[C@H]1C(=O)OC` [ACLARUBICIN], the IC50 entry in data set [1] was “Not Active”; in data set [2], “Not Active”; in data set [3] (read-out: IC50), 1110 nM; in data set [4], “Not Active”; on Adenosine receptor A3 it was “Not Active”; on Cytochrome P450 3A4 it was “Not Active”. Further, the Ki entry in data set [1] was “Not Active”; in data set [2] it was “Not Active”; in data set [3] (read-out: Ki) it was 704 nM; on Cytochrome P450 3A4, “Not Active”.

Turning to `CNCCc1ccccn1` [BETAHISTINE], the half-inhibitory concentration (IC50) result (in data set [1]; in data set [2]; in data set [3] (cho-k1); in data set [4]; at Adenosine receptor A3; on Cytochrome P450 3A4) was “Not Active” throughout. In addition, the inhibition constant (Ki) entry (in data set [1]; in data set [2]; on Cytochrome P450 3A4) was “Not Active” in each case.

Take `Clc1cccc(Cl)c1NC1=NCCN1` [CLONIDINE]: the IC50 result (in data set [1]; in data set [2]; in data set [3] (cho-k1); in data set [4]; against Adenosine receptor A3; against Cytochrome P450 3A4) was “Not Active” in each case. The Ki entry (in data set [1]; in data set [2]; at Cytochrome P450 3A4) was “Not Active” in each case.

On to `C[C@H](CS)C(=O)N1CCC[C@H]1C(=O)O` [CAPTOPRIL], for which the IC50 result (in data set [1]; in data set [2]; in data set [3] (cho-k1); in data set [4]; at Adenosine receptor A3; against Cytochrome P450 3A4) was “Not Active” throughout. For the same compound, the Ki result (in data set [1]; in data set [2]; on Cytochrome P450 3A4) was “Not Active” each time.

Turning to `OC(Cn1cncn1)(Cn1cncn1)c1ccc(F)cc1F` [FLUCONAZOLE], the concentration for half-maximal inhibition (IC50) entry (in data set [1]; in data set [2]; in data set [3] (cho-k1); in data set [4]; at Adenosine receptor A3; against Cytochrome P450 3A4) was “Not Active” throughout. For the same compound, the inhibition constant (Ki) result (in data set [1]; in data set [2]; on Cytochrome P450 3A4) was “Not Active” throughout.

The term IC50 denotes the concentration that inhibits the measured activity by half. As a reminder, the Ki is the equilibrium dissociation constant of an inhibitor or competing ligand from its target.
